Earlier results, collected in US20220347185A1, “IBOGAINE FORMULATIONS” (CAAMTECH, INC., priority 2019, published 2022).

Columns and labels:
humans = settings: Mash et al. 2000
rats = settings: single dose, Rodriguez et al. 2020
[1] = Dzoljic et al. 1988
heroin addicts = settings: 1962
mice = settings: da Silva et al. 2006

Compound	depressive symptoms (humans)	antidepressant effects (rats)	withdrawal from narcotics addiction [1]	effectiveness of multiple administrations versus a single dose (rats and mice; additional study results)	self-administration of opiates (rats and mice; rats and mice)	cravings and withdrawal symptoms (heroin addicts)	treating substance addiction (review papers and meta-analyses)	treating opioid addiction (several current studies)	anticonvulsive effect (mice)	antidepressive effect (mice)	anxiolytic effect (mice)
CC[C@H]1C[C@@H]2C[C@H]3c4[nH]c5ccc(OC)cc5c4CCN(C2)[C@@H]13 [ibogaine]	significantly decreased depressive symptoms	caused antidepressant effects	relieve withdrawal from narcotics addiction	more effective in multiple administrations over time than from a single dose	reduce or interrupt the self-administration of opiates	marked reductions in their cravings and withdrawal symptoms	effective for treating substance addiction	effective for treating opioid addiction	–	–	–
CO[C@H]1C=C2[C@H]3CN(Cc4cc5c(cc43)OCO5)[C@H]2C[C@@H]1O [montanine]	–	–	–	–	–	–	–	–	anticonvulsive	antidepressive effects	anxiolytic
CC[C@H]1C[C@@H]2C[C@H]3c4[nH]c5ccc(O)cc5c4CCN(C2)[C@@H]13 [noribogaine]	–	caused antidepressant effects	–	–	–	–	–	–	–	–	–
